Reference: patent publication US20250248970A1, “NOVEL SUBSTITUTED FLUORINATED N-PROPYL-PYRROLIDINE COMPOUNDS, PROCESSES FOR THEIR PREPARATION AND THERAPEUTIC USES THEREOF” (SANOFI, priority 2022, published 2025)

Legend:
CYP3A4 = CYP3A4 induction potential for ADME profile evaluation (CYP3A4 mRNA by RT-PCR in primary human hepatocytes); assay type: in vitro ADME; conditions: for CYP3A4 induction Emax (%): approximately 48 hours, 0.3-10 μM, relative to 10 μM rifampicin
Description: Such test is based, for example, on the quantification of CYP3A4 mRNA induction performed by RT-PCR analysis. Said % Emax may be calculated as detailed in the illustrative part under the following formula:
[formula] • ECompound: relative fold mRNA expression following treatment with test compound, • EPositive control: relative fold mRNA expression following reference inducer i.e., 10 μM rifampicin, • EVehicle control: relative fold mRNA expression following vehicle treatment i.e., 0.1% DMSO, and • E is the efficiency of the quantitative PCR.
Said test evaluates the potential induction effect of the tested compounds on CYP3A4 gene expression in primary cultures of human hepatocytes from one or two donors with established concentration-dependent response to the reference inducer, rifampicin.
Before seeding, cell viability was estimated using the Trypan blue dye exclusion test. Hepatocytes were seeded on collagen I-coated 96-well plates at a density of 70 000 cells/well in 100 μL of plating medium for at least 4 hours under a humidified atmosphere of CO2/air (5%/95%), at 37° C. After the cell attachment period, the plating medium was removed, and the hepatocytes were treated daily for 2 consecutive days (approximately 48 hours), with 100 μL per well of fresh culture medium containing either the vehicle control (0.1% DMSO) or the investigated compounds at four concentrations 0.3, 1, 3 and 10 μM, or rifampicin, the reference inducer at 10 μM. All incubations were performed in duplicates.
Ten mM stock solutions of the different compounds were diluted to obtain 0.3, 1 and 3 mM daughter solutions. The day of the experiment, stock solutions were diluted 1000-fold in the incubation/culture medium to achieve final concentrations of 0.3, 1, 3 and 10 μM.
After the 48-hour incubation period with the test compounds, the cell culture medium was removed, and the cells were lysed to release the RNA for CYP3A4 gene expression assessment. Quantification of CYP3A4 mRNA induction was performed by RT-PCR analysis.
Total RNA was extracted from hepatocytes using the King Fisher™ Flex Purification System with the MagMAX mirVana Total RNA Isolation kit (Thermo Fisher Scientific, USA). RNA was quantified by fluorimetry using the Quantifluor RNA System (Promega, USA) and cDNAs were synthesized from […] total RNA using the iScript Reverse Transcription Supermix for RT-qPCR from Biorad (France) at 42° C. for 30 min. cDNA samples were then diluted in water (1:5) and 5 μL of each sample was used for real-time PCR amplification by using the SYBR Green kit from Biorad (France). The following program was used: a denaturation step at 95° C. for 30 sec, and 40 cycles of PCR (denaturation, 95° C., 10 sec and annealing and extension, 58° C., 1 min). In all cases, the quality of the PCR product was assessed by monitoring a fusion step at the end of the run. Human forward and reverse primer sequences used were: 5′-CCT-GGC-ACC-CAG-CAC-AAT-3′ and 5′-GGG-CCG GAC-TCG-TCA-TAC-3′ for actin, 5′-CAC-AAA-CG-GAG-GCC-TTT-TG-3′ and 5′-ATC-CAT-GCT-GTA-GGC-CCC-AA-3′ for CYP3A4.
Cq (quantification cycle) values were determined using a multi-variable, non-linear regression model to individual well traces and then using this model an optimal Cq value was computed. Cq values are inversely proportional to the amount of target nucleic acid in the sample (i.e., lowest Cq level corresponds to the greatest amount of target nucleic acid in the sample). Cq of reference gene (in this study human actin) was also used as positive control of quantitative PCR.
The extent of induction or % of Emax, resulting from treatment with test compounds was calculated under the following formula: […]

ERα = target: T1, ERα (Homo sapiens, UniProt P03372); test: Estrogen receptor degradation activity (breast cancer cell ERα in cell western assay); assay type: cell-based; conditions: MCF7 cells, 0.3 μM, 4 hours, % of ERα levels decrease relative to fulvestrant
T1 construct: host or cells: MCF7
T1 sequence (P03372 1-595): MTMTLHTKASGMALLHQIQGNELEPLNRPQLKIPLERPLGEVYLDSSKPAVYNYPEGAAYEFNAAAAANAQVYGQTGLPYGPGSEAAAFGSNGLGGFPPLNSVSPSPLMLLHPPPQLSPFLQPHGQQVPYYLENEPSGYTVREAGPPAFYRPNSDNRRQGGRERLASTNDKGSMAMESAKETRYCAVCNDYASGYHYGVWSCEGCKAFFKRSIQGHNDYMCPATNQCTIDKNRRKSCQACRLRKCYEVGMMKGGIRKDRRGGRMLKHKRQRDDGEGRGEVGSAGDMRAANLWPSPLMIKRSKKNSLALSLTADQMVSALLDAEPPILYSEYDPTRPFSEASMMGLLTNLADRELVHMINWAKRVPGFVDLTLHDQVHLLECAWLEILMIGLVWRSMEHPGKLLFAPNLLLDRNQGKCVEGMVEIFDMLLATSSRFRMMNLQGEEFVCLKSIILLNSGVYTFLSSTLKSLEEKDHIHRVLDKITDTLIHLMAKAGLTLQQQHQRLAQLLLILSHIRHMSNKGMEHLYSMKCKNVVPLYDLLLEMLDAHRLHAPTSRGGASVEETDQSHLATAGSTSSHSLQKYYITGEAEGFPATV
Outline: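 MCF7 cells in phenol red-free MEM alpha with 5% charcoal-stripped FBS were exposed for 4 h to 9-point 1:5 dilutions (0.3–0.0000018 μM final). In-cell western: anti-ERα immunofluorescence normalized to Syto-64 DNA stain, scaled between DMSO and 0.1 μM fulvestrant; IC50 as 50% ERα degradation, in nM.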

Row | CYP3A4 induction Emax (%) (CYP3A4) | CYP3A4 induction (in words) (CYP3A4; rating based on % Emax relative to rifampicin) | % Degradation At 0.3 μM (ERα) | Structure (SMILES)
1 | 7% | no CYP3A4 induction | 85% | O=C(O)c1ccc2c(c1)CCCC(c1ccc(Cl)cc1Cl)=C2c1ccc(C[C@H]2CCN(CCCF)C2)cc1 [Compound 1, 8-(2,4-dichlorophenyl)-9-(4-((1-(3-fluoropropyl)pyrrolidin-3-yl)methyl)phenyl)-6,7-dihydro-5H-benzo[7]annulene-3-carboxylic acid, (S) Isomer]
2 | 13% | – | 80% | Cl.O=C(O)c1ccc2c(c1)CCCC(c1ccc(F)cc1C(F)(F)F)=C2c1ccc(CC2CCN(CCC(F)F)C2)cc1 (single isomer, unassigned; isomer 1) [Compound 5, 9-(4-((1-(3,3-difluoropropyl)pyrrolidin-3-yl)methyl)phenyl)-8-(4-fluoro-2-(trifluoromethyl)phenyl)-6,7-dihydro-5H-benzo[7]annulene-3-carboxylic acid hydrochloride, Isomer 1]
3 | 26% | – | 90% | Cl.O=C(O)c1ccc2c(c1)CCCC(c1cccc(Cl)c1C(F)(F)F)=C2c1ccc(CC2CCN(CCCF)C2)cc1 (single isomer, unassigned; isomer 1) [Compound 13, 8-(3-chloro-2-(trifluoromethyl)phenyl)-9-(4-((1-(3-fluoropropyl)pyrrolidin-3-yl)methyl)phenyl)-6,7-dihydro-5H-benzo[7]annulene-3-carboxylic acid hydrochloride, Isomer 1]
